# Laboratory results published in patent US12492184B2, “Heteroaryl compounds, preparation methods and uses thereof” (InventisBio Co., Ltd., priority 2020, dated 2025).
# Test system: HEK-Blue IL23 Reporter
# Test: HEK-Blue IL-23 STAT3 Reporter Assay
# Type: cell-based, human
# Settings: HEK-Blue IL23 cells stimulated with IL-23 overnight; SEAP read with QUANTI-Blue at OD655
# Experimental: HEK-Blue IL23 cells (InvivoGen catalog #HKB-IL23) are designed for the detection of bioactive IL-23 by monitoring the activation of the STAT3 pathway. They were generated by stably introducing the genes for the human IL-23 receptor, STAT3, and the SEAP (secreted embryonic alkaline phosphatase) reporter gene into human HEK293 cell line.
# Briefly, around 50,000 cells in DMEM medium supplemented with 10% heat inactivated FBS (˜180 ul) were seeded into each well and incubate for 48 hours at 37° C. with 5% CO2 in air. On day 3, one microliter of compound and 20 ul IL-23 were transferred to the assay plate respectively. The plate was left in the 37° C. incubator overnight. Two microliter of cell supernatant was transferred to a 384-well plate, and 18 ul of resuspended QUANTI-Blue solution was added to each well. SLAP levels were determined using Tecan Spark at OD655.
# Cells with no IL23 added were used as Low control. Cells stimulated with IL23 were used as High control. Inhibition rate was calculated with the formula of % inhibition=100*(High control−Treated Well)/(High Control−Low control). IL-23 reporter assay inhibition IC50 was calculated with the equation of Y=Bottom+(Top-Bottom)/(1+10^((Log IC50−X)*HillSlope)).
row,Structure (SMILES),IC50 [nM]
1,[2H]C([2H])([2H])NC(=O)c1nnc(NC(=O)[C@H]2CC23CC3)cc1Nc1nccc2c1S(C)(=O)=NC2 (stereo partly drawn) [Compound 129],0.4
2,[2H]C([2H])([2H])NC(=O)c1nnc(NC(=O)N2CCCC2)cc1Nc1nccc2c1S(C)(=O)=NC2 (stereo not drawn) [Compound 92],≥ 1000
3,"[2H]C([2H])([2H])NC(=O)c1nnc(NC(=O)[C@H]2CC23CC3)cc1Nc1ncccc1S(C)(=O)=NC (single isomer, unassigned) [Compound 97]",1.4

# Same assay, conditions: Homo sapiens, HEK-Blue IL-23, HEK-Blue IL23 cells stimulated with IL-23 overnight; SEAP read with QUANTI-Blue at OD655
row,Structure (SMILES),IC50 [nM]
1,[2H]C([2H])([2H])NC(=O)c1nnc(NC(=O)C2(F)CC2)cc1Nc1ncc(OC)cc1S(C)(=O)=O [Compound 35],11
2,[2H]C([2H])([2H])NC(=O)c1nnc(NC(=O)[C@H]2CC23CC3)cc1Nc1nc2c(cc1S(C)(=O)=O)CNCC2 [Compound 40],54.4
3,[2H]C([2H])([2H])NC(=O)c1nnc(NC(=O)C2CCC2)cc1Nc1ncc(OC)cc1S(C)(=O)=O [Compound 15],9.1
4,[2H]C([2H])([2H])NC(=O)c1nnc(NC(=O)[C@H]2CC23CC3)cc1Nc1ncc(C(F)F)cc1S(C)(=O)=O [Compound 105],6.7
5,[2H]C([2H])([2H])NC(=O)c1nnc(NC(=O)C2CC2)cc1Nc1ncc(OC[C@H](C)OC(F)F)cc1S(C)(=O)=O [Compound 73],1.1
6,[2H]C([2H])([2H])NC(=O)c1nnc(NC(=O)[C@H]2CC23CC3)cc1Nc1ncc(N2CC(F)(F)C2)cc1S(C)(=O)=O [Compound 124],1.9
7,[2H]C([2H])([2H])NC(=O)c1nnc(NC(=O)c2ccn(C)n2)cc1Nc1ncc(OC)cc1S(C)(=O)=O [Compound 30],440
8,[2H]C([2H])([2H])NC(=O)c1nnc(NC(=O)NC2CCC2)cc1Nc1ncc(OC)cc1S(C)(=O)=O [Compound 88],0.6
9,[2H]C([2H])([2H])NC(=O)c1nnc(NC(=O)[C@H]2CC23CC3)cc1Nc1ncc(N2CC(F)C2)cc1S(C)(=O)=O [Compound 128],1
10,[2H]C([2H])([2H])NC(=O)c1nnc(NC(=O)c2ccc(F)cc2)cc1Nc1ncc(OC)cc1S(C)(=O)=O [Compound 29],350
11,[2H]C([2H])([2H])NC(=O)c1nnc(NC(=O)C2CC23CC3)nc1Nc1ccccc1S(C)(=O)=O (stereo not drawn) [Compound 11],121
12,[2H]C([2H])([2H])NC(=O)c1nnc(NC23CC(C2)C3)cc1Nc1ncccc1S(C)(=O)=O [Compound 20],195
13,[2H]C([2H])([2H])NC(=O)c1nnc(C(F)F)cc1Nc1ncccc1S(C)(=O)=O [Compound 49],> 1000
14,[2H]C([2H])([2H])NC(=O)c1cnc(NC(=O)[C@H]2CC23CC3)cc1Nc1ncc(Cl)cc1S(C)(=O)=O [Compound 119],6.2
15,[2H]C([2H])([2H])NC(=O)c1nnc(NC(=O)C2CC2)cc1Nc1ncc(OC[C@@H](C)OC)cc1S(C)(=O)=O [Compound 68],0.6
16,"[2H]C([2H])([2H])NC(=O)c1nnc(NC(=O)C2CC2)cc1Nc1ncc(SC(F)(F)F)cc1S(C)(=O)=O (single isomer, unassigned) [Compound 54]",1.5
17,[2H]C([2H])([2H])NC(=O)c1nnc(NC(=O)C2CC23CC3)cc1Nc1ncc(F)cc1S(C)(=O)=O (stereo not drawn) [Compound 3],7.1
18,[2H]C([2H])([2H])NC(=O)c1cnc(NC(=O)C2CC2)cc1Nc1ncc(C2CC2)cc1S(C)(=O)=O [Compound 77],1.1
19,[2H]C([2H])([2H])NC(=O)c1nnc(NC(=O)C2CC(OC)C2)cc1Nc1ncc(OC)cc1S(C)(=O)=O (stereo not drawn) [Compound 36],5.6
20,"[2H]C([2H])([2H])NC(=O)c1nnc(NC(=O)C2CC2)cc1Nc1ncc(OC(F)F)cc1S(C)(=O)=O (single isomer, unassigned) [Compound 60]",1.7
21,[2H]C([2H])([2H])NC(=O)c1nnc(NC(=O)[C@H]2CC23CC3)cc1Nc1ncc(O[C@H](C)COC)cc1S(C)(=O)=O [Compound 115],3.5
22,[2H]C([2H])([2H])NC(=O)c1nnc(NC(=O)C2CC2)cc1Nc1ncc(C(F)(F)F)cc1S(C)(=O)=O [Compound 47],1.4
23,[2H]C([2H])([2H])NC(=O)c1nnc(NC(=O)C2CC2)cc1Nc1ncc(N2CCOC[C@H]2C)cc1S(C)(=O)=O [Compound 65],0.5
24,[2H]C([2H])([2H])NC(=O)c1nnc(NC(=O)[C@H]2CC23CC3)cc1Nc1nc2c(cc1S(C)(=O)=O)CN(C)CC2 [Compound 41],12.7
25,[2H]C([2H])([2H])NC(=O)c1nnc(NC(=O)[C@H]2CC23CC3)cc1Nc1ncc(SC(F)(F)F)cc1S(C)(=O)=O [Compound 99],15.6
26,[2H]C([2H])([2H])NC(=O)c1nnc(NC(=O)[C@H]2CC23CC3)cc1Nc1ncc(Cl)cc1S(C)(=O)=O [Compound 102],3.7
27,[2H]C([2H])([2H])NC(=O)c1nnc(NC(=O)C2CC23CC3)cc1Nc1nccc(C)c1S(C)(=O)=O (stereo not drawn) [Compound 4],39.3

row,Structure (SMILES),IC50 [nM]
1,[2H]C([2H])([2H])NC(=O)c1nnc(NC(=O)[C@H]2CC23CC3)cc1Nc1ncc(OCC)cc1S(C)(=O)=O [Compound 42],0.58
2,[2H]C([2H])([2H])NC(=O)c1nnc(NC(=O)[C@H]2CC23CC3)cc1Nc1ncc(OCCN(C)C)cc1S(C)(=O)=O [Compound 108],19.5
3,[2H]C([2H])([2H])NC(=O)c1nnc(NC(=O)C2CC2)cc1Nc1ncc(O[C@H](C)COC)cc1S(C)(=O)=O [Compound 70],1.3
4,[2H]C([2H])([2H])NC(=O)c1nnc(NC(=O)C2CC2)cc1Nc1ncc(OCC(C)(C)O)cc1S(C)(=O)=O [Compound 66],5.7
5,[2H]C([2H])([2H])NC(=O)c1nnc(NC(=O)[C@H]2CC23CC3)cc1Nc1nscc1S(C)(=O)=O [Compound 103],5.7
6,[2H]C([2H])([2H])NC(=O)c1nnc(NC(=O)C2CC2)cc1Nc1nc(C2CC2)sc1S(C)(=O)=O [Compound 83],7.4
7,[2H]C([2H])([2H])NC(=O)c1nnc(NC(=O)[C@H]2CC23CC3)cc1Nc1cc(Cl)ccc1S(C)(=O)=O [Compound 10],1820
8,[2H]C([2H])([2H])NC(=O)c1nnc(NC(=O)[C@H]2CC23CC3)cc1Nc1ncc(C)cc1S(C)(=O)=O [Compound 33],0.9
9,[2H]C([2H])([2H])NC(=O)c1nnc(NC(=O)[C@H]2CC23CC3)cc1Nc1ccncc1S(C)(=O)=O [Compound 13],346
10,[2H]C([2H])([2H])NC(=O)c1nnc(NC(=O)[C@H]2CC23CC3)cc1Nc1ncc(C#N)cc1S(C)(=O)=O [Compound 126],17.4
11,[2H]C([2H])([2H])NC(=O)c1nnc(NC(=O)[C@H]2CC23CC3)cc1Nc1ccc(Cl)cc1S(C)(=O)=O [Compound 9],51
12,[2H]C([2H])([2H])NC(=O)c1nnc(NC(=O)C2CC2)cc1Nc1ncc(OCCOC(F)F)cc1S(C)(=O)=O [Compound 78],0.8
13,[2H]C([2H])([2H])NC(=O)c1nnc(NC(=O)C2CC23CC3)cc1Nc1nccc(CO)c1S(C)(=O)=O (stereo not drawn) [Compound 6],18.8
14,"[2H]C([2H])([2H])NC(=O)c1cnc(NC(=O)C2CC2)cc1Nc1ncc(F)cc1S(C)(=O)=O (single isomer, unassigned) [Compound 55]",1.5
15,[2H]C([2H])([2H])NC(=O)c1nnc(NC(=O)C2CC2)cc1Nc1ncc(C)cc1S(C)(=O)=O [Compound 48],0.46
16,[2H]C([2H])([2H])NC(=O)c1nnc(NC(=O)[C@H]2CC23CC3)cc1Nc1nc2c(cc1S(C)(=O)=O)CN(C(=O)OCc1ccccc1)CC2 [Compound 39],3.2
17,[2H]C([2H])([2H])CC(=O)c1nnc(NC(=O)[C@H]2CC23CC3)cc1Nc1ncc(OC)cc1S(C)(=O)=O [Compound 104],119
18,[2H]C([2H])([2H])NC(=O)c1nnc(NC(=O)C2CC2)cc1Nc1ncc(C2(F)COC2)cc1S(C)(=O)=O [Compound 62],71.9
19,[2H]C([2H])([2H])NC(=O)c1nnc(NC(=O)C2CC2)cc1Nc1nc(C)sc1S(C)(=O)=O [Compound 71],5.4
20,[2H]C([2H])([2H])NC(=O)c1nnc(NC(=O)C2CC2)cc1Nc1ncc(OC[C@@H](C)OC=O)cc1S(C)(=O)=O [Compound 76],2.5
21,[2H]C([2H])([2H])NC(=O)c1nnc(NC(=O)C23CC(C2)C3)cc1Nc1ncc(OC)cc1S(C)(=O)=O [Compound 16],182
22,[2H]C([2H])([2H])NC(=O)c1nnc(NC(=O)[C@H]2CC23CC3)cc1Nc1ncc(N2CCOC[C@@H]2C)cc1S(C)(=O)=O [Compound 122],16.1
23,[2H]C([2H])([2H])NC(=O)c1nnc(NC(=O)[C@H]2CC23CC3)cc1Nc1ncc(OC[C@@H](C)OC)cc1S(C)(=O)=O [Compound 113],1.2
24,[2H]C([2H])([2H])NC(=O)c1nnc(NC(=O)[C@H]2CC23CC3)cc1Nc1ncc(OC(F)F)cc1S(C)(=O)=O [Compound 106],3.6
25,[2H]C([2H])([2H])NC(=O)c1nnc(NC(=O)OC)cc1Nc1ncccc1S(C)(=O)=O [Compound 24],25.4
26,[2H]C([2H])([2H])NC(=O)c1nnc(NC(=O)[C@H]2CC23CC3)cc1Nc1ncc(OC(F)(F)F)cc1S(C)(=O)=O [Compound 132],6.5
27,[2H]C([2H])([2H])NC(=O)c1nnc(NC(=O)[C@H]2CC23CC3)cc1Nc1ncc(OC)cc1S(C)(=O)=O [Compound 26],2.3
